Source: patent publication US9693556B2, “Herbicidal pyridazinone derivatives” (SYNGENTA LIMITED, priority 2011, dated 2017)

What was measured:
Type in all cases: in vivo
[1] = tested on: Amaranthus retoflexus (AMARE); test: Pre-emergence herbicidal glasshouse test on Amaranthus retoflexus; conditions: pre-emergence; 1000 g/h; evaluated after 13 days
Method in brief: (§1)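 Application rate 1000 g/h, formulated in acetone/water (50:50) with 0.5% Tween 20 and sprayed onto pots sown 1 day (pre-emergence) or 8 days (post-emergence) earlier. Evaluation at 13 days rated damage from 1 (0-19%) to 5 (80-100%).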

[2] = tested on: Ipomoea hederacea (IPOHE); test: Post-emergence herbicidal glasshouse test on Ipomoea hederacea; conditions: post-emergence; 1000 g/h; evaluated after 13 days
Method in brief: as §1

Solanum nigrum (SOLNI) [3] = test: Post-emergence herbicidal glasshouse test on Solanum nigrum; conditions: post-emergence; 1000 g/h; evaluated after 13 days
Method in brief: as §1

[4] = tested on: Echinochloa crus-galli (ECHCG); test: Pre-emergence herbicidal glasshouse test on Echinochloa crus-galli; conditions: pre-emergence; 1000 g/h; evaluated after 13 days
Method in brief: as §1

[5] = tested on: Ipomoea hederacea (IPOHE); test: Pre-emergence herbicidal glasshouse test on Ipomoea hederacea; conditions: pre-emergence; 1000 g/h; evaluated after 13 days
Method in brief: as §1

Setaria faberi (SETFA) [6] = test: Pre-emergence herbicidal glasshouse test on Setaria faberi; conditions: pre-emergence; 1000 g/h; evaluated after 13 days
Method in brief: as §1

[7] = tested on: Echinochloa crus-galli (ECHCG); test: Post-emergence herbicidal glasshouse test on Echinochloa crus-galli; conditions: post-emergence; 1000 g/h; evaluated after 13 days
Method in brief: as §1

[8] = tested on: Alopecurus myosuroides (ALOMY); test: Pre-emergence herbicidal glasshouse test on Alopecurus myosuroides; conditions: pre-emergence; 1000 g/h; evaluated after 13 days
Method in brief: as §1

Setaria faberi (SETFA) [9] = test: Post-emergence herbicidal glasshouse test on Setaria faberi; conditions: post-emergence; 1000 g/h; evaluated after 13 days
Method in brief: as §1

[10] = tested on: Alopecurus myosuroides (ALOMY); test: Post-emergence herbicidal glasshouse test on Alopecurus myosuroides; conditions: post-emergence; 1000 g/h; evaluated after 13 days
Method in brief: as §1

[11] = tested on: Amaranthus retoflexus (AMARE); test: Post-emergence herbicidal glasshouse test on Amaranthus retoflexus; conditions: post-emergence; 1000 g/h; evaluated after 13 days
Method in brief: as §1

Solanum nigrum (SOLNI) [12] = test: Pre-emergence herbicidal glasshouse test on Solanum nigrum; conditions: pre-emergence; 1000 g/h; evaluated after 13 days
Method in brief: as §1

Structure (SMILES)	PRE Application AMARE herbicidal damage (five point scale) [1]	POST Application IPOHE herbicidal damage (five point scale) [2]	POST Application SOLNI herbicidal damage (five point scale) (Solanum nigrum (SOLNI) [3])	PRE Application ECHCG herbicidal damage (five point scale) [4]	PRE Application IPOHE herbicidal damage (five point scale) [5]	PRE Application SETFA herbicidal damage (five point scale) (Setaria faberi (SETFA) [6])	POST Application ECHCG herbicidal damage (five point scale) [7]	PRE Application ALOMY herbicidal damage (five point scale) [8]	POST Application SETFA herbicidal damage (five point scale) (Setaria faberi (SETFA) [9])	POST Application ALOMY herbicidal damage (five point scale) [10]	POST Application AMARE herbicidal damage (five point scale) [11]	PRE Application SOLNI herbicidal damage (five point scale) (Solanum nigrum (SOLNI) [12])
COc1ccc(C(C)C)cc1-c1c(C(F)(F)F)ccn(-c2cnn(C)c(=O)c2O)c1=O [Compound 7.015]	5 (5=80-100% damage)	3 (3=40-59% damage)	5 (5=80-100% damage)	3 (3=40-59% damage)	4 (4=60-79% damage)	4 (4=60-79% damage)	4 (4=60-79% damage)	3 (3=40-59% damage)	3 (3=40-59% damage)	2 (2=20-39% damage)	5 (5=80-100% damage)	5 (5=80-100% damage)
CCOc1cccc(-c2c(C(F)(F)F)ccn(-c3cnn(C)c(=O)c3O)c2=O)c1 [Compound 7.016]	5 (5=80-100% damage)	1 (1=0-19% damage)	5 (5=80-100% damage)	2 (2=20-39% damage)	1 (1=0-19% damage)	2 (2=20-39% damage)	2 (2=20-39% damage)	2 (2=20-39% damage)	2 (2=20-39% damage)	2 (2=20-39% damage)	5 (5=80-100% damage)	5 (5=80-100% damage)
Cn1ncc(-n2ccc(C(F)(F)F)c(-c3cc(F)c(F)c(F)c3)c2=O)c(O)c1=O [Compound 7.017]	5 (5=80-100% damage)	5 (5=80-100% damage)	5 (5=80-100% damage)	5 (5=80-100% damage)	4 (4=60-79% damage)	5 (5=80-100% damage)	5 (5=80-100% damage)	5 (5=80-100% damage)	5 (5=80-100% damage)	5 (5=80-100% damage)	5 (5=80-100% damage)	5 (5=80-100% damage)
Cn1ncc(-n2ccc(C(F)(F)F)c(-c3cccc(C(F)(F)F)c3)c2=O)c(O)c1=O [Compound 7.018]	5 (5=80-100% damage)	3 (3=40-59% damage)	5 (5=80-100% damage)	5 (5=80-100% damage)	2 (2=20-39% damage)	5 (5=80-100% damage)	5 (5=80-100% damage)	5 (5=80-100% damage)	5 (5=80-100% damage)	5 (5=80-100% damage)	5 (5=80-100% damage)	5 (5=80-100% damage)
Cn1ncc(-n2ccc(C(F)(F)F)c(-c3cccc(C#N)c3)c2=O)c(O)c1=O [Compound 7.019]	5 (5=80-100% damage)	2 (2=20-39% damage)	5 (5=80-100% damage)	5 (5=80-100% damage)	2 (2=20-39% damage)	5 (5=80-100% damage)	5 (5=80-100% damage)	5 (5=80-100% damage)	5 (5=80-100% damage)	5 (5=80-100% damage)	5 (5=80-100% damage)	5 (5=80-100% damage)
